Test results published in ChEMBL document CHEMBL2010759, “Scabronine M, a novel inhibitor of NGF-induced neurite outgrowth from PC12 cells from the fungus Sarcodon scabrosus” (Bioorg Med Chem Lett, 2012).
Activity calls are given as the source filed them. The rule behind the calls is not given here.

Columns and labels:
PC-12 [1] = test: Inhibition of NGF-mediated neurite outgrowth in rat PC12 cells after 24 hrs by light microscopy; type: functional, cell-based
PC-12 [2] = test: Inhibition of NGF-mediated neurite outgrowth in rat PC12 cells at 100 uM after 24 hrs by light microscopy (reference value: 21.06 +/- 1.27 %); type: functional; conditions: PC-12, 24 h
PC-12 [3] = test: Inhibition of NGF-mediated neurite outgrowth in rat PC12 cells at 10 uM after 24 hrs by light microscopy (reference value: 21.06 +/- 1.27 %); type: functional; conditions: PC-12, 24 h
[4] = biological target: High affinity nerve growth factor receptor (Rattus norvegicus) (UniProt P35739); test: Inhibition of NGF-induced TrkA receptor phosphorylation in rat PC12 cells at 1 uM after 15 mins by ELISA relative to control; type: cell-based; conditions: PC-12
PC-12 [5] = test: Increase of NGF-mediated neurite outgrowth in rat PC12 cells at 1 uM after 24 hrs by light microscopy (reference value: 21.06 +/- 1.27 %); type: functional
PC-12 [6] = test: Inhibition of NGF-mediated neurite outgrowth in rat PC12 cells at 50 uM after 24 hrs by light microscopy (reference value: 21.06 +/- 1.27 %); type: functional; conditions: PC-12, 24 h
[7] = biological target: High affinity nerve growth factor receptor (Rattus norvegicus) (UniProt P35739); test: Inhibition of NGF-induced TrkA receptor phosphorylation in rat PC12 cells at 10 uM after 15 mins by ELISA relative to control; type: cell-based; conditions: PC-12
[8] = biological target: T1, Mitogen-activated protein kinase 1 and 3 (ERK2 and ERK1) (Rattus norvegicus) (UniProt P63086+P21708); test: Inhibition of NGF-induced ERK1/2 phosphorylation in rat PC12 cells at 50 uM after 15 mins by Western blotting analysis relative to beta-actin level (reference value: 0.275 +/- 0.005); type: cell-based; conditions: PC-12
PC-12 [9] = test: Cytotoxicity against rat PC12 cells at 100 uM after 2 days by MTT assay; type: cell-based; conditions: pc-12, 48 h
[10] = biological target: High affinity nerve growth factor receptor (Rattus norvegicus) (UniProt P35739); test: Inhibition of NGF-induced TrkA receptor phosphorylation in rat PC12 cells at 50 uM after 15 mins by ELISA relative to control; type: cell-based; conditions: PC-12
PC-12 [11] = test: Increase of NGF-induced neuronal differentiation in rat PC12 cells up to 100 uM after 24 hrs by light microscopy; type: functional, cell-based
[12] = biological target: T1, Mitogen-activated protein kinase 1 and 3 (ERK2 and ERK1) (Rattus norvegicus); test: Inhibition of NGF-induced ERK1/2 phosphorylation in rat PC12 cells at 1 uM after 15 mins by Western blotting analysis relative to beta-actin level (reference value: 0.275 +/- 0.005); type: cell-based; conditions: PC-12
[13] = biological target: High affinity nerve growth factor receptor (Rattus norvegicus) (UniProt P35739); test: Inhibition of NGF-induced TrkA receptor phosphorylation in rat PC12 cells after 15 mins by ELISA relative to control; type: cell-based; conditions: PC-12
[14] = biological target: T1, Mitogen-activated protein kinase 1 and 3 (ERK2 and ERK1) (Rattus norvegicus); test: Inhibition of NGF-induced ERK1/2 phosphorylation in rat PC12 cells after 15 mins by Western blotting analysis relative to beta-actin level; type: cell-based; conditions: PC-12
[15] = biological target: T1, Mitogen-activated protein kinase 1 and 3 (ERK2 and ERK1) (Rattus norvegicus); test: Inhibition of NGF-induced ERK1/2 phosphorylation in rat PC12 cells at 10 uM after 15 mins by Western blotting analysis relative to beta-actin level (reference value: 0.275 +/- 0.005); type: cell-based; conditions: PC-12
PC-12 [16] = test: Increase of NGF-mediated neurite outgrowth in rat PC12 cells after 24 hrs by light microscopy; type: functional, cell-based

T1 sequence (P21708 whole entry, looked up): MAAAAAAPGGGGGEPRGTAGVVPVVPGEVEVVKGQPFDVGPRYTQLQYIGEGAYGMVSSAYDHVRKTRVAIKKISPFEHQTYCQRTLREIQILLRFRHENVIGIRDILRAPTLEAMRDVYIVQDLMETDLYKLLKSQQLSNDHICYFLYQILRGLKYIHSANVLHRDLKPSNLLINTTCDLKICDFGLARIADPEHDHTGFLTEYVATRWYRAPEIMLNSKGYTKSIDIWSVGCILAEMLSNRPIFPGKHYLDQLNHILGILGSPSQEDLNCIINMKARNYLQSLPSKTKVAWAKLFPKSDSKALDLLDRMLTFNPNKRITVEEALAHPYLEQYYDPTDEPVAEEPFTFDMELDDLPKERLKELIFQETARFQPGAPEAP
T1 sequence (P63086 whole entry, looked up): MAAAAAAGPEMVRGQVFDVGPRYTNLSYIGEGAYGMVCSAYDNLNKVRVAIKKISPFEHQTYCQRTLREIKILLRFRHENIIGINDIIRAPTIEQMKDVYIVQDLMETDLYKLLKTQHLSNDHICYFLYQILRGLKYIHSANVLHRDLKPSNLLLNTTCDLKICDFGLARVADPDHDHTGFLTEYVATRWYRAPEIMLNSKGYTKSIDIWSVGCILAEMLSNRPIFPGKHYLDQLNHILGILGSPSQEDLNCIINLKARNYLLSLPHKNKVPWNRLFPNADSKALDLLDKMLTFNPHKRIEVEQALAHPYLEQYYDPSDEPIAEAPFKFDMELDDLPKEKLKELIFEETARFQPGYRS
Chain of High affinity nerve growth factor receptor (Rattus norvegicus) (P35739 whole entry): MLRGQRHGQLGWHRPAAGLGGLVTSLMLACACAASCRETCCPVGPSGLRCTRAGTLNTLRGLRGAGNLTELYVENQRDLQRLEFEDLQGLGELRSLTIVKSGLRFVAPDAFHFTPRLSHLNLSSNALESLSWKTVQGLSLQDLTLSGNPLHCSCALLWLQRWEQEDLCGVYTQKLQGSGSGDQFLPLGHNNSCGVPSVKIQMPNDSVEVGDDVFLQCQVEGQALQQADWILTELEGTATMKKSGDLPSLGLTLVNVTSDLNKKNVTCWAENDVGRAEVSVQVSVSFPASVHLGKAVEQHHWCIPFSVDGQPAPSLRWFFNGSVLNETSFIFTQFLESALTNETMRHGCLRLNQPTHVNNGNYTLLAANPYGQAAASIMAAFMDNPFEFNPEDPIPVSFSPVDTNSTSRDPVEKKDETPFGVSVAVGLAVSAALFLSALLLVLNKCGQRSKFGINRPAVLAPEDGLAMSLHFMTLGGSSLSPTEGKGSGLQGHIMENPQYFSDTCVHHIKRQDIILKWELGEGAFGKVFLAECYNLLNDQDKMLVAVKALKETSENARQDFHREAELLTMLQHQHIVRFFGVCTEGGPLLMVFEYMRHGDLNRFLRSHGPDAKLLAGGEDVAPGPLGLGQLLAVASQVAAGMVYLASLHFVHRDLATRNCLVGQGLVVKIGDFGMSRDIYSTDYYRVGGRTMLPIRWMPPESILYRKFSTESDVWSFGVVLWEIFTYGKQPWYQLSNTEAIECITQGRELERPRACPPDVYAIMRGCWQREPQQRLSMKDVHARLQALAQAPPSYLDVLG

CO[C@@H]1C=C2[C@@H]3CC[C@H]([C@H](C)/C=C/[C@H](C)C(C)C)[C@@]3(C)CC[C@]2(O)[C@@]2(C)CC[C@H](O)C[C@]12O
inhibition (PC-12 [1]): inactive

C[C@H](CO)[C@]12CC[C@]3(C)CC[C@@]4(C)C(=O)CC(C=O)=CC[C@@H]4[C@@]31O2 (relative stereo) [SCABRONINE M]
inhibition (PC-12 [1]): Dose-dependent effect
neurite-bearing cells at 100 µM (PC-12 [2]): 0.1%
neurite-bearing cells at 10 µM (PC-12 [3]): 9.15%
fold change (FC) [4]: 1.61
Activity (PC-12 [5]): 23.22%
neurite-bearing cells at 50 µM (PC-12 [6]): 1.6%
fold change (FC) [7]: 1.4
Ratio [8]: 0.21
Activity (PC-12 [9]): Non-toxic
fold change (FC) [10]: 1.34
Activity (PC-12 [11]): inactive
Ratio [12]: 0.26
inhibition [13]: Dose-dependent effect
inhibition [14]: Dose-dependent effect
Ratio [15]: 0.24

CC(C)[C@@H](C)/C=C/[C@@H](C)[C@H]1CC[C@@H]2[C@]1(C)CC[C@H]1[C@]23C=C[C@]2(C[C@@H](O[C@@H]4O[C@H](CO)[C@@H](O)[C@H](O)[C@H]4O)CC[C@]12C)OO3
inhibition (PC-12 [1]): inactive

C[C@H](CO)C1=C2C3=CC=C(C=O)C[C@H](O)[C@]3(C)CC[C@@]2(CO)CC1
inhibition (PC-12 [1]): inactive

CC(C)[C@@H](C)/C=C/[C@@H](C)[C@H]1CC[C@H]2C3=C[C@@H](O)[C@@]4(O)C[C@@H](O)CC[C@]4(C)[C@H]3CC[C@]12C
inhibition (PC-12 [1]): inactive

CC(C)[C@@H](C)/C=C/[C@@H](C)[C@H]1CC[C@@H]2[C@]1(C)CC[C@H]1[C@]23C=C[C@]2(C[C@@H](O)CC[C@]12C)OO3
inhibition (PC-12 [1]): inactive

CC(C)[C@@H](C)/C=C/[C@@H](C)[C@H]1CC[C@H]2C3=CC[C@H]4C[C@@H](O)CC[C@]4(C)[C@H]3CC[C@]12C
inhibition (PC-12 [1]): inactive

CC(C)[C@@H](C)/C=C/[C@@H](C)[C@H]1CC[C@H]2C3=CC=C4C[C@@H](O)CC[C@]4(C)[C@H]3CC[C@]12C
inhibition (PC-12 [1]): inactive

C[C@H](CO)C1=C2[C@H]3CC=C(C=O)CC(=O)[C@]3(C)CC[C@@]2(C)CC1
inhibition (PC-12 [1]): Active
Activity (PC-12 [16]): Active

CC(C)[C@@H](C)/C=C/[C@@H](C)[C@H]1CC[C@H]2C3=C[C@@H](O)[C@@]4(O)C[C@@H](O[C@@H]5O[C@H](CO)[C@@H](O)[C@H](O)[C@H]5O)CC[C@]4(C)[C@H]3CC[C@]12C
inhibition (PC-12 [1]): inactive

CCCCCCCCCCCCCCC[C@@H](O)C(=O)N[C@@H](CO[C@@H]1O[C@H](CO)[C@@H](O)[C@H](O)[C@H]1O)[C@H](O)/C=C/CC/C=C(\C)CCCCCCCCC
inhibition (PC-12 [1]): inactive

CC(C)[C@@H](C)/C=C/[C@@H](C)[C@H]1CC[C@H]2C3=CC(=O)[C@@]4(O)C[C@@H](O)CC[C@]4(C)[C@@]3(O)CC[C@]12C
inhibition (PC-12 [1]): inactive
